Where two headings read alike, the source gives them in different places.
Columns and labels:
[1] = target: T1, polyamine binding site of the NR2B subunit of the NMDA receptor (Homo sapiens, UniProt Q05586+Q13224); experiment: Filtration-based receptor binding assay with [3H]-Ifenprodil as radioligand; settings: 5 nM [3H]-Ifenprodil, membrane homogenates of mouse L(tk-) cells transfected with NR1-1a/NR2B, 180 min at 37 °C, read-out: affinity to the NR2B binding site of the NMDA receptor
T1 construct: expressed in transfected cells; host or cells: mouse L(tk-) cells, dexamethasone-induced; gift from D. Steinhilber, University of Frankfurt
Description: Mouse L(tk-) cells stably transfected with the dexamethasone-inducible eukaryotic expression vectors pMSG NR1-1a, pMSG NR2B in a 1:5 ratio were a generous gift from D. Steinhilber (Department of Pharmacy, University of Frankfurt, Germany). The transformed L(tk-) cells were grown in Modified Earl's Medium (MEM) containing 10% of standardized FCS (Biochrom AG, Berlin, Germany). The expression of the NMDA receptor at the cell surface was induced after the cell density of the adherent growing cells had reached approximately 90% of confluency. For the induction, the original growth medium was replaced by growth medium containing 4 µM dexamethasone and 4 µM ketamine (final concentration). After 24 h the cells were harvested by trypsination and pelleted (10 min, 5,000 x g, Hettich Rotina 35R centrifuge, Tuttlingen, Germany).
For the binding assay, the cell pellet was resuspended in PBS buffer and the number of cells was determined using an improved Neubauer's counting chamber (VWR, Darmstadt, Germany). Subsequently, the cells were lysed by sonication (4 °C, 6 x 10 s cycles with breaks of 10 sec). The resulting cell fragments were centrifuged with a high performance cool centrifuge (20,000 x g, 4 °C, Sorvall RC-5 plus, Thermo Scientific). The supernatant was discarded and the pellet resuspended in a defined volume of phosphate buffer saline (PBS) yielding cell fragments of approximately 500,000 cells/mL. The suspension of membrane homogenates was sonicated again (4 °C, 2 x 10 s cycles with a break of 10 min) and stored at -80 °C.
The cell membrane suspension was added last. All experiments were carried out in triplicates. The incubation was terminated by rapid filtration through filtermats using a cell harvester (MicroBeta FilterMate-96 Harvester, Perkin Elmer). Prior to harvesting, the filtermats were presoaked in 0.5% aqueous polyethylenimine for 2 h at room temperature. After washing each well five times with 300 µL of water, the filtermats were dried at 95 °C. Subsequently, the solid scintillator was placed on the filtermat and melted at 95 °C. After 5 min, the solid scintillator was allowed to solidify at room temperature. The bound radioactivity trapped on the filters was counted in the scintillation analyzer (Microbeta Counter, Perkin Elmer). The overall counting efficiency was 20%.
The protein concentration was determined by the method of Bradford, modified by Stoscheck. The Bradford solution was prepared by dissolving 5 mg of Coomassie Brilliant Blue G 250 in 2.5 mL EtOH (95%, v/v). 10 mL deionized H2O and 5 mL phosphoric acid (85%, m/v) were added to this solution, the mixture was stirred and filled up to a total volume of 50.0 mL with deionized water. The calibration was carried out using bovine serum protein as a standard in concentrations between 0.1 and 10 mg /L. In a 96-well standard multiplate, 10 µL of the calibration solution or 10 µL of the membrane receptor preparation were mixed with 190 µL of the Bradford solution, respectively.
Kd and Bmax were calculated as described in the "Data analysis" section.
Data analysis was performed with Graph Pad Prism® Software, Version 3.0 (Graph Pad Software Inc., San Diego, CA, USA).
Saturation analyses were made by nonlinear regression using the "one-site-saturation" calculation method. The IC50 values of the test compounds used in the competitive binding experiments were determined by nonlinear regression using the "one-site-competition" calculation method. […] The Ki values are given as mean values from three independent experiments ± Standard Error of the Mean (S.E.M).

[2] = target: T2, σ2 receptor (Rattus norvegicus, UniProt Q5U3Y7); experiment: Receptor binding assay with [3H]-ditolylguanidine on rat liver membranes; settings: for Ki: read-out: affinity to the σ2 receptor
T2 construct: tissue Harlan Winkelmann; host or cells: rat liver membranes
T2 sequence (Q5U3Y7 1-176): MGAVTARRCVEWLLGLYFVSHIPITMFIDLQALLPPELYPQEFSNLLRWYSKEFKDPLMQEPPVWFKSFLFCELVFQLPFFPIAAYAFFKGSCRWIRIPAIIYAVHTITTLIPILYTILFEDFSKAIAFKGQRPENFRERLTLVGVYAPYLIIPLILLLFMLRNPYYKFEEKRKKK
Description: (§1) The pig brains were a donation of the local slaughterhouse (Coesfeld, Germany). Homogenizer: Elvehjem Potter (B. Braun Biotech International, Melsungen, Germany). Centrifuge: High-speed cooling centrifuge model Sorvall RC-5C plus (Thermo Fisher Scientific, Langenselbold, Germany). Filter: Printed Filtermat Typ A and B (Perkin Elmer LAS, Rodgau-Jügesheim, Germany), presoaked in 0.5% aqueous polyethylenimine for 2 h at room temperature before use. […] Before filling to the final volume of 1000 mL, the pH of the solution was adjusted to pH=7.5 by dropwise addition of 1M HCl. The filtration was carried out with a MicroBeta FilterMate-96 Harvester (Perkin Elmer). The scintillation analysis was performed using Meltilex (Typ A or B) solid scintillator (Perkin Elmer). The solid scintillator was melted on the filtermat at a temperature of 95 °C for 5 minutes. After solidifying of the scintillator at room temperature, the scintillation was measured using a MicroBeta Trilux scintillation analyzer (Perkin Elmer). The overall counting efficiency was 20 %. All experiments were carried out in triplicates using standard 96-well-multiplates (Diagonal, Muenster, Germany). […] The Ki-values are given as mean value ± SEM from three independent experiments.
Determination of affinity to the σ2 receptor
Two rat livers (Harlan Winkelmann, Borchen, Germany) were cut into smaller pieces and homogenized with the potter (500-800 rpm, 10 up-and-down strokes) in 6 volumes of cold 0.32 M sucrose. The suspension was centrifuged at 1200 x g for 10 min at 4 °C. The supernatant was separated and centrifuged at 31000 x g for 20 min at 4 °C. The pellet was resuspended in 5-6 volumes of buffer (50 mM TRIS, pH 8.0) and incubated at room temperature for 30 minutes. After the incubation, the suspension was centrifuged again at 31000 x g for 20 min at 4 °C. The final pellet was resuspended in 5 to 6 volumes of buffer, the protein concentration was determined according to the method of Bradford using bovine serum albumin as standard, and subsequently the preparation was frozen (-80 °C) in 1.5 mL portions containing about 2 mg protein/mL.
(50 Ci/mmol; ARC). […] The incubation was terminated by rapid filtration through the presoaked filtermats using a cell harvester. After washing each well five times with 300 µL of water, the filtermats were dried at 95 °C. Subsequently, the solid scintillator was placed on the filtermat and melted at 95 °C. The bound radioactivity trapped on the filters was counted in the scintillation analyzer as described in the "General procedures" section.

[3] = target: T3, σ1 receptor (Cavia porcellus, UniProt Q60492); experiment: Receptor binding assay with [3H]-(+)-pentazocine on guinea pig brain membranes; settings: for inhibition of the σ1 receptor only at concentrations above: given as above 1 µM or 10 µM
T3 construct: tissue Harlan Winkelmann; host or cells: guinea pig brain membranes
Description: as §1
Determination of the affinity to the σ1 receptor
Five guinea pig brains (Harlan Winkelmann, Borchen, Germany) were homogenized with the potter (500-800 rpm, 10 up-and-down strokes) in 6 volumes of cold 0.32 M sucrose. The suspension was centrifuged at 1200 x g for 10 min at 4 °C. […] This procedure was repeated twice. The final pellet was resuspended in 5 to 6 volumes of buffer, the protein concentration was determined according to the method of Bradford using bovine serum albumin as standard, and subsequently the preparation was frozen (-80 °C) in 1.5 mL portions containing about 1.5 mg protein/mL.
The test was performed with the radioligand [^3H]-(+)-pentazocine (42,5 Ci/mmol; Perkin Elmer). […] The incubation was terminated by rapid filtration through the presoaked filtermats using a cell harvester. After washing each well five times with 300 µl of water, the filtermats were dried at 95 °C. The bound radioactivity trapped on the filters was counted in the scintillation analyzer as described in the "General procedures" section. The non-specific binding was determined with 10 µM unlabeled (+)-pentazocine.

[4] = Ki mean of three experiments ± S.E.M.
[5] = 3 nM [3H]-ditolylguanidine with 2 µM (+)-pentazocine
[6] = 2 nM [3H]-(+)-pentazocine, guinea pig brain membranes
[7] = 3 nM [3H]-ditolylguanidine with 2 µM (+)-pentazocine, 180 min at room temperature, mean ± SEM
[8] = 2 nM [3H]-(+)-pentazocine, guinea pig brain membranes, 180 min at 37 °C, mean ± SEM, read-out: affinity to the σ1 receptor
[9] = 3 nM [3H]-ditolylguanidine with 2 µM (+)-pentazocine, values given in µM

T3 sequence (Q60492 whole entry): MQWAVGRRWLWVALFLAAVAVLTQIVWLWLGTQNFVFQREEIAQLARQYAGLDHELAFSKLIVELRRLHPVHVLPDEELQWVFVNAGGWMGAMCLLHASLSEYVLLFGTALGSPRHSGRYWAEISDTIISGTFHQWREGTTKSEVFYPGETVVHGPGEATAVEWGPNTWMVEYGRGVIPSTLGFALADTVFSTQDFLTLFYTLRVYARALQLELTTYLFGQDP
T1 sequence (Q13224 27-1484, other chains not shown): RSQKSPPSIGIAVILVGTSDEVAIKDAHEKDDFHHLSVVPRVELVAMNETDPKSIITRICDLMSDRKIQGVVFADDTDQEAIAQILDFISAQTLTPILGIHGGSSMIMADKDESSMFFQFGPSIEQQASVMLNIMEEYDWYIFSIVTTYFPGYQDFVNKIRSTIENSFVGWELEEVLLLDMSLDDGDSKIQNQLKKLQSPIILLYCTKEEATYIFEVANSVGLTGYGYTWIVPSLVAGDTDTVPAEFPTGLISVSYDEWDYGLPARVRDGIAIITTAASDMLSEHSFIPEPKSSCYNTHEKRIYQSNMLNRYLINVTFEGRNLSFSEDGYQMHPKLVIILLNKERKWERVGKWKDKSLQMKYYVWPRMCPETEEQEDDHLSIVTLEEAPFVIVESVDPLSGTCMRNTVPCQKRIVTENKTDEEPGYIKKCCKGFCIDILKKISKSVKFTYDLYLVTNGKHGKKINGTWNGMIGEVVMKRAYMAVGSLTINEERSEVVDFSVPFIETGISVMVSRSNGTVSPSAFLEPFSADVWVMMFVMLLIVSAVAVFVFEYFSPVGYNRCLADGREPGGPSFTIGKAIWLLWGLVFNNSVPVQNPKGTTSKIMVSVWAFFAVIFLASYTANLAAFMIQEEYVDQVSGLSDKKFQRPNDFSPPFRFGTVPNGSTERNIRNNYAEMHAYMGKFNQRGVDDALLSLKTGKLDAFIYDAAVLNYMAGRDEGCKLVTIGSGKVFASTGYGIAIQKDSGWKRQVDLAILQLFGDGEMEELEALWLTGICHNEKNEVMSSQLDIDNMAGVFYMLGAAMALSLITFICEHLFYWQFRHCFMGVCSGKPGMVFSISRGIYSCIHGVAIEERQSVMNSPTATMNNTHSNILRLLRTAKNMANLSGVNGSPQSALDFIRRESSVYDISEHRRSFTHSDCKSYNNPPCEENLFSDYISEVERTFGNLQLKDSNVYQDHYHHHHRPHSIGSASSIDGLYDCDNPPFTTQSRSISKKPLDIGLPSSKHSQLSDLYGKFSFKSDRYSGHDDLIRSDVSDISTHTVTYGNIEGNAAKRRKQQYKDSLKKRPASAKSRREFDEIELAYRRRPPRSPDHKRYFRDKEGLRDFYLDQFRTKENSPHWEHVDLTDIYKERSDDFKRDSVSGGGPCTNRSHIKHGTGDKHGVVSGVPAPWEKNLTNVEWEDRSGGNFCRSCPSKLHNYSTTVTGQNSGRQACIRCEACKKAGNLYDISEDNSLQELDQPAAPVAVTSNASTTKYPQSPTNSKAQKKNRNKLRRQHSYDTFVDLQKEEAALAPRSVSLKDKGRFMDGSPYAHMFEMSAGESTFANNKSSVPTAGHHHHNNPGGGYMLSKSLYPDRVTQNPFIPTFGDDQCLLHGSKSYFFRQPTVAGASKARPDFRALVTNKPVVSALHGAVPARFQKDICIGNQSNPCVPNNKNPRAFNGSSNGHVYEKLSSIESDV

| SMILES | Ki [1, 4] [µM] | Ki [2, 7] [µM] | Ki [3, 8] [nM] | also measured |
| --- | --- | --- | --- | --- |
| OC1CN([C@H]2CC[C@@H](c3ccccc3)CC2)CCc2cc(OCc3ccccc3)ccc21 (relative stereo) [formula (19)] | 0.156 |  |  | inhibition of the σ2 receptor only at concentrations above [2, 5]: above 1 µM; inhibition of the σ1 receptor only at concentrations above [3, 6]: above 1 µM |
| Oc1ccc2c(c1)CCN([C@H]1CC[C@@H](c3ccccc3)CC1)CC2O (relative stereo) [formula (21)] | 0.00486 | 0.00856 ± 0.00433 |  |  |
| Oc1ccc2c(c1)CCN([C@H]1CC[C@H](c3ccccc3)CC1)CC2O (relative stereo) [formula (23)] | 0.0342 | 0.00893 ± 0.00257 | 200 ± 62 |  |
| COc1ccc2c(c1)CCN(CCCCc1ccccc1)CC2O (stereo not shown) [formula (1)] | 0.00512 | 0.554 ± 0.221 | 182 ± 67 |  |
| CCCCCCCCN1CCc2cc(OC)ccc2C(O)C1 (stereo not shown) [formula (2)] | 0.591 ± 0.15 | 0.108 ± 0.09 |  | Ki [3]: 44.6 ± 21.4 nM |
| COc1ccc2c(c1)CCN(C1CCC(c3ccccc3)CC1)CC2O (stereo not shown) [formula (3)] | 0.192 ± 0.026 | 0.0816 ± 0.0444 | 33.1 ± 29.8 |  |
| Oc1ccc2c(c1)CCN(CCCCc1ccccc1)CC2O (stereo not shown) [formula (4)] | 0.0153 ± 0.0012 |  |  |  |
| COc1ccc2c(c1)CCN(CCCCCc1ccccc1)CC2O (stereo not shown) [formula (5)] | 0.325 | 0.305 | 65.3 ± 12.3 |  |
| COc1ccc2c(c1)CCN(CCCC(=O)c1ccc(F)cc1)CC2O (stereo not shown) [formula (6)] | 0.258 |  |  | inhibition of the σ2 receptor only at concentrations above [2, 5]: above 1 µM; inhibition of the σ1 receptor only at concentrations above [3, 6]: above 1 µM |
| COc1ccc2c(c1)CCN(CCCCSc1ccccc1)CC2O (stereo not shown) [formula (7)] |  | 0.308 ± 0.116 | 94.7 ± 51 | Ki ([1]; values given in µM): 1.04 µM |
| COc1ccc2c(c1)CCN(CCCSc1ccccc1)CC2O (stereo not shown) [formula (8)] |  |  | 155 | Ki ([1]; values given in µM): 1.88 µM; Ki [2, 9]: 1.52 µM |
| OC1CN(CCCCc2ccccc2)CCc2cc(OCc3ccccc3)ccc21 (stereo not shown) [formula (9)] | 0.249 ± 0.063 |  | 293 ± 101 | Ki [2, 9]: 1.05 µM |
| O=S(=O)(CCCN1CCc2cc(OCc3ccccc3)ccc2C(O)C1)c1ccccc1 (stereo not shown) [formula (10)] | 0.0452 |  | 349 | Ki [2, 9]: 3.04 µM |
| COc1ccc2c(c1)CCN(CCCC1(c3ccc(F)cc3)OCC(C)(C)CO1)CC2O (stereo not shown) [formula (11)] | 0.107 |  | 45.6 | Ki ([2]; 3 nM [3H]-[…] with 2 µM (+)-pentazocine, 180 min at room temperature, mean ± SEM): 0.103 µM |
| OC1CN(CCCSc2ccccc2)CCc2cc(OCc3ccccc3)ccc21 (stereo not shown) [formula (12)] | 0.046 | 0.653 | 376 |  |
| CC(C)(C)c1ccc(C(=O)CCCN2CCc3cc(OCc4ccccc4)ccc3C(O)C2)cc1 (stereo not shown) [formula (13)] | 0.099 |  | 604 | Ki [2, 9]: 6.43 µM |
| COc1ccc2c(c1)CCN(CCCC(=O)c1ccc(C(C)(C)C)cc1)CC2O (stereo not shown) [formula (14)] | 0.0604 | 0.267 ± 0.055 | 44.3 ± 14.1 |  |
| CC1(C)COC(CCCN2CCc3cc(OCc4ccccc4)ccc3C(O)C2)(c2ccc(F)cc2)OC1 (stereo not shown) [formula (15)] |  |  |  | Ki ([1]; values given in µM): 1.24 µM; inhibition of the σ2 receptor only at concentrations above [2, 5]: above 1 µM; inhibition of the σ1 receptor only at concentrations above [3, 6]: above 1 µM |
| CN(Cc1ccccc1)C(=O)CN1CCc2cc(O)ccc2C(O)C1 (stereo not shown) [formula (16)] |  |  | 172 | Ki ([1]; values given in µM): 7.68 µM; Ki [2, 9]: 1.58 µM |
| COc1ccc2c(c1)CCN(CCCCc1ccccc1)[C@@H](C)[C@H]2O [formula (17)] | 0.209 | 0.00608 ± 0.00148 | 42.1 ± 9.9 |  |
| COc1ccc2c(c1)CCN(CCCCc1ccccc1)[C@H](C)[C@@H]2O [formula (18)] | 0.586 | 0.0185 ± 0.0042 | 3.21 ± 1.42 |  |
| OC1CN(C2CCC(c3ccccc3)CC2)CCc2cc(OCc3ccccc3)ccc21 (stereo not shown) [formula (20)] |  | 0.311 | 10.4 ± 1.4 | Ki ([1]; values given in µM): 2.51 µM |
| Oc1ccc2c(c1)CCN(CCCOc1ccccc1)CC2O (stereo not shown) [formula (22)] | 0.0234 | 0.00589 ± 0.00286 | 82.2 |  |
| C[C@H]1[C@H](O)c2ccc(O)cc2CCN1CCCCc1ccccc1 [formula (29)] | 0.171 |  | 40.8 |  |
| C[C@@H]1[C@@H](O)c2ccc(O)cc2CCN1CCCCc1ccccc1 [formula (30)] | 0.0164 |  | 846 |  |

— patent publication EP2246331A1, “NR2B-selective NMDA-receptor antagonists” (Westfälische Wilhelms-Universität Münster, priority 2009, dated 2010)
